Results from PubChem BioAssay (NCI).
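Each compound was tested at five concentrations against cells in 96-well plates for 48 hours. Here, GI50 denotes the concentration required for 50% inhibition of growth. At the TGI there is no net growth.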

Assays:
Assay in all cases: NCI tumour cell line growth inhibition, 48 h
SN12C renal = test system: SN12C renal
SF-295 CNS = test system: SF-295 CNS
SK-MEL-5 melanoma = test system: SK-MEL-5 melanoma
SW-620 colon = test system: SW-620 colon
SK-MEL-28 melanoma = test system: SK-MEL-28 melanoma
IGROV1 ovarian = test system: IGROV1 ovarian
HS 578T breast = test system: HS 578T breast
TK-10 renal = test system: TK-10 renal
RPMI-8226 leukemia = test system: RPMI-8226 leukemia
NCI-H460 lung = test system: NCI-H460 lung
NCI-H522 lung = test system: NCI-H522 lung
SNB-75 CNS = test system: SNB-75 CNS
HT29 colon = test system: HT29 colon
SK-MEL-2 melanoma = test system: SK-MEL-2 melanoma
DU-145 prostate = test system: DU-145 prostate
HOP-62 NSCLC = test system: HOP-62 NSCLC
SF-268 CNS = test system: SF-268 CNS
U251 CNS = test system: U251 CNS
MDA-MB-435 = test system: MDA-MB-435
RXF 393 renal = test system: RXF 393 renal
UACC-62 melanoma = test system: UACC-62 melanoma
T-47D breast = test system: T-47D breast
SNB-19 CNS = test system: SNB-19 CNS
SK-OV-3 ovarian = test system: SK-OV-3 ovarian
A549 NSCLC = test system: A549 NSCLC
K-562 leukemia = test system: K-562 leukemia
786-0 renal = test system: 786-0 renal
HOP-92 NSCLC = test system: HOP-92 NSCLC
OVCAR-8 ovarian = test system: OVCAR-8 ovarian
UO-31 renal = test system: UO-31 renal
SF-539 CNS = test system: SF-539 CNS
BT-549 breast = test system: BT-549 breast
ACHN renal = test system: ACHN renal
M14 melanoma = test system: M14 melanoma
CCRF-CEM leukemia = test system: CCRF-CEM leukemia
PC-3 prostate = test system: PC-3 prostate
MDA-MB-231 breast = test system: MDA-MB-231 breast
COLO 205 colon = test system: COLO 205 colon
NCI-H23 lung = test system: NCI-H23 lung
MCF7 breast = test system: MCF7 breast
NCI/ADR-RES ovarian = test system: NCI/ADR-RES ovarian
CAKI-1 renal = test system: CAKI-1 renal
UACC-257 melanoma = test system: UACC-257 melanoma
EKVX NSCLC = test system: EKVX NSCLC
HCC-2998 colon = test system: HCC-2998 colon
HCT-116 colon = test system: HCT-116 colon
OVCAR-4 ovarian = test system: OVCAR-4 ovarian
MALME-3M melanoma = test system: MALME-3M melanoma
MOLT-4 leukemia = test system: MOLT-4 leukemia
KM12 colon = test system: KM12 colon
HL-60(TB) leukemia = test system: HL-60(TB) leukemia
OVCAR-5 ovarian = test system: OVCAR-5 ovarian
A498 renal = test system: A498 renal

C=C(C=O)[C@@H]1CC[C@]2(C(=O)O)CC[C@]3(C)C(CC[C@@H]4[C@@](C)(CCC#N)[C@H](C(=C)C=O)CC[C@]43C)[C@@H]12 (stereo partly specified)
GI50 (SN12C renal): 3.2 µM
TGI (SN12C renal): 15.2 µM
GI50 (SF-295 CNS): 3.07 µM
TGI (SF-295 CNS): 11.6 µM
GI50 (SK-MEL-5 melanoma): 1.78 µM
TGI (SK-MEL-5 melanoma): 3.33 µM
GI50 (SW-620 colon): 2.18 µM
TGI (SW-620 colon): 4.79 µM
GI50 (SK-MEL-28 melanoma): 2.45 µM
TGI (SK-MEL-28 melanoma): 6.22 µM
GI50 (IGROV1 ovarian): 2.82 µM
TGI (IGROV1 ovarian): 8.47 µM
GI50 (HS 578T breast): 3.17 µM
TGI (HS 578T breast): 18.9 µM
GI50 (TK-10 renal): 3.34 µM
TGI (TK-10 renal): 13.5 µM
GI50 (RPMI-8226 leukemia): 2.63 µM
TGI (RPMI-8226 leukemia): 7.26 µM
GI50 (NCI-H460 lung): 5.56 µM
TGI (NCI-H460 lung): 19.8 µM
GI50 (NCI-H522 lung): 2.26 µM
TGI (NCI-H522 lung): 6.2 µM
GI50 (SNB-75 CNS): 6.07 µM
TGI (SNB-75 CNS): 22.3 µM
GI50 (HT29 colon): 1.99 µM
TGI (HT29 colon): 4.03 µM
GI50 (SK-MEL-2 melanoma): 1.99 µM
TGI (SK-MEL-2 melanoma): 4.01 µM
GI50 (DU-145 prostate): 3.72 µM
TGI (DU-145 prostate): 12.7 µM
GI50 (HOP-62 NSCLC): 2.08 µM
TGI (HOP-62 NSCLC): 4.67 µM
GI50 (SF-268 CNS): 6.22 µM
TGI (SF-268 CNS): 26.2 µM
GI50 (U251 CNS): 1.88 µM
TGI (U251 CNS): 3.84 µM
GI50 (MDA-MB-435): 3.21 µM
TGI (MDA-MB-435): 11.4 µM
GI50 (RXF 393 renal): 1.98 µM
TGI (RXF 393 renal): 3.68 µM
GI50 (UACC-62 melanoma): 2 µM
TGI (UACC-62 melanoma): 4.88 µM
GI50 (T-47D breast): 3.28 µM
TGI (T-47D breast): 15.2 µM
GI50 (SNB-19 CNS): 3.93 µM
TGI (SNB-19 CNS): 18.3 µM
GI50 (SK-OV-3 ovarian): 8.49 µM
TGI (SK-OV-3 ovarian): 23.1 µM
GI50 (A549 NSCLC): 7.29 µM
TGI (A549 NSCLC): 23.9 µM
GI50 (K-562 leukemia): 2.76 µM
TGI (K-562 leukemia): 9.34 µM
GI50 (786-0 renal): 1.86 µM
TGI (786-0 renal): 3.8 µM
GI50 (HOP-92 NSCLC): 1.37 µM
TGI (HOP-92 NSCLC): 3.55 µM
GI50 (OVCAR-8 ovarian): 2.59 µM
TGI (OVCAR-8 ovarian): 7.06 µM
GI50 (UO-31 renal): 2.5 µM
TGI (UO-31 renal): 8.02 µM
GI50 (SF-539 CNS): 2.91 µM
TGI (SF-539 CNS): 9.31 µM
GI50 (BT-549 breast): 1.82 µM
TGI (BT-549 breast): 3.57 µM
GI50 (ACHN renal): 3.26 µM
TGI (ACHN renal): 10.5 µM
GI50 (M14 melanoma): 1.92 µM
TGI (M14 melanoma): 4.1 µM
GI50 (CCRF-CEM leukemia): 2.78 µM
TGI (CCRF-CEM leukemia): 8.75 µM
GI50 (PC-3 prostate): 1.95 µM
TGI (PC-3 prostate): 5.28 µM
GI50 (MDA-MB-231 breast): 3.05 µM
TGI (MDA-MB-231 breast): 9.1 µM
GI50 (COLO 205 colon): 10.9 µM
TGI (COLO 205 colon): 27.7 µM
GI50 (NCI-H23 lung): 2.13 µM
TGI (NCI-H23 lung): 4.87 µM
GI50 (MCF7 breast): 2.9 µM
TGI (MCF7 breast): 12.1 µM
GI50 (NCI/ADR-RES ovarian): 3.87 µM
TGI (NCI/ADR-RES ovarian): 34.5 µM
GI50 (CAKI-1 renal): 3.38 µM
TGI (CAKI-1 renal): 15.4 µM
GI50 (UACC-257 melanoma): 1.8 µM
TGI (UACC-257 melanoma): 3.88 µM
GI50 (EKVX NSCLC): 6.64 µM
TGI (EKVX NSCLC): 23.9 µM
GI50 (HCC-2998 colon): 1.93 µM
TGI (HCC-2998 colon): 3.81 µM
GI50 (HCT-116 colon): 1.8 µM
TGI (HCT-116 colon): 3.46 µM
GI50 (OVCAR-4 ovarian): 4.22 µM
TGI (OVCAR-4 ovarian): 23.5 µM
GI50 (MALME-3M melanoma): 2.53 µM
TGI (MALME-3M melanoma): 8.01 µM
GI50 (MOLT-4 leukemia): 2.71 µM
TGI (MOLT-4 leukemia): 13.7 µM
GI50 (KM12 colon): 3.22 µM
TGI (KM12 colon): 10.6 µM
GI50 (HL-60(TB) leukemia): 2.02 µM
TGI (HL-60(TB) leukemia): 7.8 µM
GI50 (OVCAR-5 ovarian): 2.37 µM
TGI (OVCAR-5 ovarian): 6.69 µM
GI50 (A498 renal): 14.2 µM
TGI (A498 renal): 29.3 µM
